In this test the test system is serine protease such as thrombin. In words: Stabilization of ProGRP in serum by addition of PMSF (Example 2). In kind it is biochemical. To be noted: PMSF added to serum, room temperature storage. The protocol:
After PMSF (manufactured by Sigma-Aldrich Co.) was added to serum, ProGRP 31-98 antigen amino no acid synthesized by the Fmoc method was added thereto. After the mixture was stored at room temperature, the concentration of ProGRP was assayed using the Architect ProGRP. […] PMSF is a substance that is used to inactivate the activity of an enzyme of a serine protease such as thrombin and the presence of a protease such as thrombin can be considered to be the cause of ProGRP inactivation.

Take `O=S(=O)(F)Cc1ccccc1` [PMSF, Phenylmethanesulfonyl Fluoride]: the “effect on decrease in the activity of ProGRP in serum” value is recorded as “significantly suppressed”.

The values are drawn from patent US10067124B2, “Immunoassay method for pro-gastrin-releasing peptide” (Abbott Laboratories, priority 2006, dated 2018).
